# Laboratory results reported in patent US6716829B2, “Aldosterone antagonist and cyclooxygenase-2 inhibitor combination therapy to prevent or treat inflammation-related cardiovascular disorders” (Pharmacia Corporation, priority 2000, dated 2004).
# Columns and labels:
# [1] = system: aldosterone-infused, saline-drinking, uni-nephrectomized rats; experiment: Assay B: heart histology (hematoxylin&eosin), vascular inflammatory lesions and myocardial injury; format: in vivo, Male Sprague Dawley rats; settings: eplerenone 100 mpk p.o., 0.6% KCl group, 4 weeks
# Protocol: Assay B: In Vivo Aldosterone Infusion Model Male Sprague Dawley rats (n=39; BW=250 g) […] Uni-nephrectomy performed during implantation of mini-pumps 2. Aldosterone ([…], sc via alzet minipump) 2. […] 1. […] Sacrifice after 4 weeks. Hearts were harvested and divided by half through a transverse section at the mid-ventricles: The upper half was stored into formalin. The bottom part was snap-frozen in liquid nitrogen for biochemical analysis. Hearts were stained with hematoxylin&eosin and the collagen specific dye picro-sirius red and were analyzed for determination of interstitial collagen volume fraction and morphologic abnormalities (i.e. necrosis, vascular injury).
# [2] = system: osteopontin; experiment: Assay B: osteopontin immunohistochemistry in the heart; format: in vivo, Male Sprague Dawley rats; settings: aldosterone-infused rats; eplerenone 100 mpk; increased dietary potassium group
# Protocol: Assay B: In Vivo Aldosterone Infusion Model Male Sprague Dawley rats (n=39; BW=250 g) 2. Aldosterone (0.75 mg/hr, sc via alzet minipump) 2. […] Determination of osteopontin and COX-2 was performed by quantitative RT-PCR (Taqman). Osteopontin was also identified in the heart by immunohistochemistry.
# [3] = system: angiotensin II infused rats; experiment: Assay A, angiotensin II infusion model: systolic blood pressure by tail-cuff; format: in vivo, Male Wistar rats; settings: angiotensin II 25 ng/min sc, 1% NaCl; eplerenone 100 mpk; aldosterone in adrenalectomized rats; 4 weeks
# Protocol: Human cardiovascular disorders are complex conditions, often initiated by vascular hypertension or a myocardial infarction (MI). In order to determine the probable effectiveness of a therapy for cardiovascular disorders, it is important to determine the potency of components in several assays. Accordingly, in Assay “A”, the efficacy of the aldosterone antagonist epeplerenone (epoxymexrenone) was determined in a hypertensive rat model with vascular inflammation, using angiotensin II infusion. In Assay “B” a study is described evaluating the efficacy of the aldosterone antagonist epeplerenone (epoxymexrenone) in a rat model using aldosterone infusion to produce hypertension with vascular inflammation. In Assay “C” a further study is described evaluating the efficacy of the aldosterone antagonist epeplerenone (epoxymexrenone) in a rat model using aldosterone infusion to produce hypertension with vascular inflammation.
# Assay A: In Vivo Angiotensin II Infusion Model
# Male Wistar rats (n=50, 10/group; BW=200 g)
# SBP measured by tail-cuff every week
# [4] = system: coronary arteries of angiotensin II/salt-treated animals; experiment: Assay A: heart histology (hematoxylin&eosin), vascular inflammatory lesions and myocardial injury; format: in vivo, Male Wistar rats; settings: of ten animals per group; angiotensin II/salt; eplerenone 100 mpk; 4 weeks
# Source text: Sacrifice by exanguination after 4 weeks. Blood was be collected in dry tubes for determination of serum electrolytes and in EDTA-containing tubes for measurement of aldosterone and corticosterone levels Hearts were stained with hematoxylin&eosin and have been analyzed for determination of morphologic abnormalities (i.e. necrosis, vascular injury).
Compound,Vascular inflammatory changes / myocardial injury [1],Osteopontin expression in the heart (immunostaining) [2],Systolic Blood Pressure [3],Animals with vascular inflammatory changes (lesions) in the coronary arteries [4]
[Cl-].[K+] [dietary potassium],did not have significant effects,did not reduce osteopontin expression,,
"angiotensin II: infused 25 ng/min sc via alzet minipump to produce hypertensive rat model with vascular inflammation (DRVYIHPF; Angiotensin-2; UniProt P01015 25-32, looked up)",,,increased,Seven out of the ten
